Literature values in US20220016034A1, “OPIOID RECEPTOR MODULATOR DOSAGE FORMULATIONS” (Allergan Holdings Unlimited Company, priority 2020, published 2022).

Tested on: stressed and non-stressed mice

CN(C)C(=O)C(CCN1CCC(O)(c2ccc(Cl)cc2)CC1)(c1ccccc1)c1ccccc1 [loperamide]
gastrointestinal transit and fecal output: completely prevented fecal output in a dose-dependent manner
